Source: US20160022875A1, “BONE SUBSTITUTES GRAFTED BY MIMETIC PEPTIDES OF HUMAN BMP 2 PROTEIN” (TEKNIMED, priority 2013, published 2016)

Tested on: Runx2 gene
Assay: Runx2 expression by RT-PCR as a function of density of peptide P1 grafted on a PET model support
Type: cell-based
Conditions: P1 grafted on PET at 0.4, 1.2 and 4.3 pmol/mm^2
Protocol: The peptide P1 was covalently grafted onto a model support, at three different densities. The support is made of polyethylene terephthalate (PET). The densities are 0.4 pmol/mm^2, 1.2 pmol/mm^2 and 4.3 pmol/mm^2. The expression level of the Runx2 factor by RT-PCR as a function of the density of the peptide P1 grafted at the surface of a model support was measured for these three densities (FIG. 13). The best expression level of the Runx2 gene is obtained for 1.2 pmol/mm^2 of peptide density, which corresponds to a maximum cell differentiation activity for the model support.
The activity obtained is also stable over time (after 1 week of culture): at 96 h of culture, a continuous increase in the expression of the Runx2 factor (approximately 42%) is observed.

Sequence: CKIPKASSVPTELSAISMLYL [P1]
- peptide density giving the best expression level of the Runx2 gene: 1.2 pmol/mm^2
